Patent US10501498B2 (BGI SHENZHEN, priority 2014, dated 2019)
Entries after “also recorded” stand apart in the source; their conditions may differ.

System: HVA calcium channel
Assay type: cell-based, rat

Sequence: KCCTMSVCQPPPVCTCCA [κ-CPTx-btl01]
- current after loading: −459.93 pA
- inhibition of HVA calcium channel currents compared with Nifedipine (positive control): inhibitory effect is higher than that of Nifedipine; also recorded: higher inhibition rate on HVA calcium channel currents than Nifedipine
- inhibition rate (10 µM): 52.17%
